From PubChem BioAssay AID977622 (Broad Institute, 2014)
Records with an inconclusive call do not appear. Calls of active or inactive are those of the source.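 Rule for the calls: active = Green signal of the normal strain falls at least twice as much as red signal of the resistant mutant, with overall culture growth loss under a set limit; inconclusive = no clear call, values can overlap the other calls; inactive = the rest.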

Experiments:
[1] = tested on: E. coli WT ribosome GFP fluorescence, mixed culture, 24 h; assay: growth inhibition of wild-type GFP E. coli, dose response, h38 mutant RFP, cherry-pick (AID 977622)
[2] = tested on: E. coli h38 humanized mutant ribosome RFP fluorescence, mixed culture, 24 h; assay: as above; conditions: measured here: h38 humanized mutant RFP strain
[3] = E. coli mixed culture, 24 h, measured here: total growth OD600

Row | Compound | AC50 [1] | AC50 [2] [µM] | AC50 [1, 3] [µM]
1 | CCn1cc(Br)c(C(=O)Nc2ccc(C(=O)OC(C)C)cc2)n1 | > 100 µM (inactive) | > 100 | –
2 | C=C1c2cc3c(cc2NC(=S)N1Cc1ccccc1)OCO3 | – | > 100 | > 100
3 | COc1ccc(OC)c(S(=O)(=O)Nc2cccc3ccc(O)cc23)c1 | > 100 µM (inactive) | > 100 | > 100
4 | COc1ccc(CN2C(=O)NC(C)(c3ccc(C)cc3)C2=O)cc1F (stereo not given) | > 100 µM (inactive) | > 100 | –
5 | O=C1OC[C@@H]2CCCN2C(=O)[C@@H](CC(=O)N(CCO)Cc2ccccc2)C/C=C\C[C@H]1Cc1ccc(F)cc1 | – | > 100 | > 100
6 | O=C(c1cccc2ccccc12)C1CCCN(C(=O)CCc2cnccn2)C1 (stereo not given) | – | > 100 | > 100
7 | Nc1c(Cl)cc(C2=NCCn3nc4ccccc4c32)cc1Cl | > 100 µM (inactive) | 50.5 | 41.6
8 | N#Cc1cccc(-c2ccc3c(c2)[C@@H]2[C@@H](CCN2S(=O)(=O)c2cccc(F)c2)[C@H](CO)N3)c1 | > 100 µM (inactive) | > 100 | –
9 | COc1ccccc1NC(=O)COC(=O)Cc1c[nH]c2ccccc12 | – | > 100 | > 100
10 | CCCc1c(C(=O)Nc2ccc(OC)cc2)cnn1-c1ccccc1 | > 100 µM (inactive) | 9.68 | –
11 | O=C(NCc1ccccc1)C1C(=O)Nc2ccccc2C(=O)N1c1ccc2c(c1)OCCO2 (stereo not given) | > 100 µM (inactive) | > 100 | –
12 | CCC1(CC)NC(=O)N(CC(=O)N2N=C(c3ccc(Cl)cc3)CC2c2ccco2)C1=O (stereo not given) | – | > 100 | > 100
13 | COc1ccc(NC(=O)Nc2cccc3c2O[C@@H](CN(C)S(=O)(=O)c2ccc(Cl)cc2)[C@H](C)CN([C@H](C)CO)C3=O)cc1 | > 100 µM (inactive) | > 100 | –
14 | CN(C)c1ccc(-c2nnn(Cc3ccccc3Br)n2)cc1 | > 100 µM (inactive) | > 100 | –
15 | O=S1(=O)N[C@H](Cc2ccccc2)COc2cccc(N3CCC[C@H]3CO)c21 | > 100 µM (inactive) | > 100 | –
16 | COc1ccc(OC)c(C(=O)COC(=O)c2ccc([N+](=O)[O-])o2)c1 | > 100 µM (inactive) | > 100 | > 100
17 | CN(C)S(=O)(=O)N1CCN(c2ccccc2Cl)CC1 | – | > 100 | > 100
18 | O=C(c1cccs1)c1c[nH]cc1-c1ccccc1 | – | > 100 | > 100
19 | O=S(=O)(Nc1ccc(-c2cnco2)cc1)c1ccccc1 | > 100 µM (inactive) | > 100 | –
20 | CCc1cc2cc(OC)ccc2nc1SCC(=O)Nc1cc(OC)c(OC)cc1C(=O)O | > 100 µM (inactive) | > 100 | 36.3
21 | Cc1ccc(C(=O)Nc2cccc3[nH]c(C(F)(F)F)nc23)cc1 | – | > 100 | > 100
22 | CCc1cccc(NC(=O)CN(C)S(=O)(=O)c2cccc3cccnc23)c1 | > 100 µM (inactive) | > 100 | –
23 | C[C@@H]1CCCCO[C@H](CN(C)CC2CC2)[C@H](C)CN([C@@H](C)CO)C(=O)c2cc(NC(=O)Nc3cccc4ccccc34)ccc2O1 | > 52 µM (inactive) | 43.2 | 32.4
24 | CC(C)n1nnnc1C1c2ccccc2C(=O)N1CCOc1ccccc1 (stereo not given) | – | 3.86 | > 100
25 | COc1ccc2oc(C)c(C(=O)c3ccccc3)c2c1 | > 100 µM (inactive) | > 100 | 48.5
26 | O=C(Nc1ccncc1)c1ccc(S(=O)(=O)Nc2ccccc2)cc1 | > 100 µM (inactive) | > 100 | –
27 | CCc1cc2c(nc1CC)CCCN2Cc1ccc(Br)cc1 | > 100 µM (inactive) | > 100 | –
28 | COc1ccc(NC(=O)CCS(=O)(=O)c2ccccc2Cl)cc1S(=O)(=O)Nc1ccc(Cl)cc1 | > 100 µM (inactive) | > 100 | > 100
29 | Cc1onc(-c2ccccc2Cl)c1C(=O)N1CCN(Cc2ccc3c(c2)OCO3)CC1 | – | > 100 | > 100
